{
  "source": "paper PMC4061985",
  "about": "(Journal of immunology (Baltimore, Md. : 1950), 2009)",
  "note": "Residues, ends and D or L forms follow the SMILES beside them.",
  "data": [
    {"biological_target": "HLA-DR0901 protein (Homo sapiens, UniProt P01903+P01911, A100R/A103E/D57H/D86V/F55Y/F60I/F76Y/I96F/K127E/L162R/M171V/P40D/Q125H/Q99R/R33Q/R42F/S133A/S66N/T210M/V115G/W38K/Y107V/Y59G/Y89S)", "experiment": "Peptide binding competition assay, DR0901", "units": {"Kd": "µM"}, "values": [
      {"smiles": "CC[C@H](C)[C@H](NC(=O)[C@H](CCCCN)NC(=O)[C@H](CC(=O)O)NC(=O)[C@H](CC(C)C)NC(=O)[C@H](CO)NC(=O)[C@H](Cc1ccc(O)cc1)NC(=O)[C@H](CC(N)=O)NC(=O)[C@H](Cc1ccccc1)NC(=O)[C@H](CC(N)=O)NC(=O)[C@@H](N)CC(C)C)C(=O)N[C@@H](CC(N)=O)C(=O)N[C@H](C(=O)N[C@@H](CC(=O)O)C(=O)O)C(C)C", "note": "[LNFNYSLDKINVD] (H-LNFNYSLDKINVD-OH)", "Kd": 2.6},
      {"smiles": "CC[C@H](C)[C@H](NC(=O)[C@H](CCCCN)NC(=O)[C@H](CC(=O)O)NC(=O)[C@H](CC(C)C)NC(=O)[C@H](CO)NC(=O)[C@H](Cc1ccc(O)cc1)NC(=O)[C@H](CC(N)=O)NC(=O)[C@H](Cc1ccccc1)NC(=O)[C@H](CC(N)=O)NC(=O)[C@@H](N)CC(C)C)C(=O)N1CCC[C@H]1C(=O)N[C@H](C(=O)N[C@@H](CC(=O)O)C(=O)O)C(C)C", "note": "[LNFNYSLDKIPVD] (H-LNFNYSLDKIPVD-OH)", "Kd": 1.7},
      {"smiles": "CC[C@H](C)[C@H](NC(=O)[C@H](CCCCN)NC(=O)[C@H](CC(=O)O)NC(=O)[C@H](CC(C)C)NC(=O)[C@H](CO)NC(=O)[C@H](Cc1ccc(O)cc1)NC(=O)[C@H](CC(N)=O)NC(=O)[C@H](Cc1ccccc1)NC(=O)[C@H](CC(N)=O)NC(=O)[C@@H](N)CC(C)C)C(=O)N[C@@H](CCCNC(=N)N)C(=O)N[C@H](C(=O)N[C@@H](CC(=O)O)C(=O)O)C(C)C", "note": "[LNFNYSLDKIRVD] (H-LNFNYSLDKIRVD-OH)", "Kd": 6.7},
      {"smiles": "CC[C@H](C)[C@H](NC(=O)[C@H](CCCCN)NC(=O)[C@H](CC(=O)O)NC(=O)[C@H](CC(C)C)NC(=O)[C@H](CO)NC(=O)[C@H](Cc1ccc(O)cc1)NC(=O)[C@H](CC(N)=O)NC(=O)[C@H](Cc1ccccc1)NC(=O)[C@H](CC(N)=O)NC(=O)[C@@H](N)CC(C)C)C(=O)N[C@@H](CO)C(=O)N[C@H](C(=O)N[C@@H](CC(=O)O)C(=O)O)C(C)C", "note": "[LNFNYSLDKISVD] (H-LNFNYSLDKISVD-OH)", "Kd": "0.77 ± 0.1"},
      {"smiles": "CC[C@H](C)[C@H](NC(=O)[C@H](CCCCN)NC(=O)[C@H](CC(=O)O)NC(=O)[C@H](CC(C)C)NC(=O)[C@H](CO)NC(=O)[C@H](Cc1ccc(O)cc1)NC(=O)[C@H](CC(N)=O)NC(=O)[C@H](Cc1ccccc1)NC(=O)[C@H](CC(N)=O)NC(=O)[C@@H](N)CC(C)C)C(=O)N[C@@H](Cc1c[nH]c2ccccc12)C(=O)N[C@H](C(=O)N[C@@H](CC(=O)O)C(=O)O)C(C)C", "note": "[LNFNYSLDKIWVD] (H-LNFNYSLDKIWVD-OH)", "Kd": "0.53 ± 0.05"},
      {"smiles": "CC[C@H](C)[C@H](NC(=O)[C@H](CCCCN)NC(=O)[C@H](CC(=O)O)NC(=O)[C@H](CC(C)C)NC(=O)[C@H](CO)NC(=O)[C@H](Cc1ccc(O)cc1)NC(=O)[C@H](CC(N)=O)NC(=O)[C@H](Cc1ccccc1)NC(=O)[C@H](CC(N)=O)NC(=O)[C@@H](N)CC(C)C)C(=O)N[C@@H](Cc1ccc(O)cc1)C(=O)N[C@H](C(=O)N[C@@H](CC(=O)O)C(=O)O)C(C)C", "note": "[LNFNYSLDKIYVD] (H-LNFNYSLDKIYVD-OH)", "Kd": "0.24 ± 0.033"},
      {"smiles": "CC[C@H](C)[C@H](NC(=O)[C@H](CCSC)NC(=O)[C@H](CC(=O)O)NC(=O)[C@H](CC(C)C)NC(=O)[C@H](CO)NC(=O)[C@H](Cc1ccc(O)cc1)NC(=O)[C@H](CC(N)=O)NC(=O)[C@H](Cc1ccccc1)NC(=O)[C@H](CC(N)=O)NC(=O)[C@@H](N)CC(C)C)C(=O)N[C@H](C(=O)N[C@H](C(=O)N[C@@H](CC(=O)O)C(=O)O)C(C)C)[C@@H](C)CC", "note": "[LNFNYSLDMIIVD] (H-LNFNYSLDMIIVD-OH)", "Kd": "0.024 ± 0.005"},
      {"smiles": "CC[C@H](C)[C@H](NC(=O)[C@H](CC(N)=O)NC(=O)[C@H](CC(=O)O)NC(=O)[C@H](CC(C)C)NC(=O)[C@H](CO)NC(=O)[C@H](Cc1ccc(O)cc1)NC(=O)[C@H](CC(N)=O)NC(=O)[C@H](Cc1ccccc1)NC(=O)[C@H](CC(N)=O)NC(=O)[C@@H](N)CC(C)C)C(=O)N[C@H](C(=O)N[C@H](C(=O)N[C@@H](CC(=O)O)C(=O)O)C(C)C)[C@@H](C)CC", "note": "[LNFNYSLDNIIVD] (H-LNFNYSLDNIIVD-OH)", "Kd": "0.027 ± 0.001"},
      {"smiles": "CC[C@H](C)[C@H](NC(=O)[C@@H](NC(=O)[C@@H]1CCCN1C(=O)[C@H](CC(=O)O)NC(=O)[C@H](CC(C)C)NC(=O)[C@H](CO)NC(=O)[C@H](Cc1ccc(O)cc1)NC(=O)[C@H](CC(N)=O)NC(=O)[C@H](Cc1ccccc1)NC(=O)[C@H](CC(N)=O)NC(=O)[C@@H](N)CC(C)C)[C@@H](C)CC)C(=O)N[C@H](C(=O)N[C@@H](CC(=O)O)C(=O)O)C(C)C", "note": "[LNFNYSLDPIIVD] (H-LNFNYSLDPIIVD-OH)", "Kd": "0.036 ± 0.012"},
      {"smiles": "CC[C@H](C)[C@H](NC(=O)[C@H](CCCNC(=N)N)NC(=O)[C@H](CC(=O)O)NC(=O)[C@H](CC(C)C)NC(=O)[C@H](CO)NC(=O)[C@H](Cc1ccc(O)cc1)NC(=O)[C@H](CC(N)=O)NC(=O)[C@H](Cc1ccccc1)NC(=O)[C@H](CC(N)=O)NC(=O)[C@@H](N)CC(C)C)C(=O)N[C@H](C(=O)N[C@H](C(=O)N[C@@H](CC(=O)O)C(=O)O)C(C)C)[C@@H](C)CC", "note": "[LNFNYSLDRIIVD] (H-LNFNYSLDRIIVD-OH)", "Kd": "0.053 ± 0.01"},
      {"smiles": "CC[C@H](C)[C@H](NC(=O)[C@H](CO)NC(=O)[C@H](CC(=O)O)NC(=O)[C@H](CC(C)C)NC(=O)[C@H](CO)NC(=O)[C@H](Cc1ccc(O)cc1)NC(=O)[C@H](CC(N)=O)NC(=O)[C@H](Cc1ccccc1)NC(=O)[C@H](CC(N)=O)NC(=O)[C@@H](N)CC(C)C)C(=O)N[C@H](C(=O)N[C@H](C(=O)N[C@@H](CC(=O)O)C(=O)O)C(C)C)[C@@H](C)CC", "note": "[LNFNYSLDSIIVD] (H-LNFNYSLDSIIVD-OH)", "Kd": "0.11 ± 0.045"},
      {"smiles": "CC[C@H](C)[C@H](NC(=O)[C@H](Cc1ccc(O)cc1)NC(=O)[C@H](CC(=O)O)NC(=O)[C@H](CC(C)C)NC(=O)[C@H](CO)NC(=O)[C@H](Cc1ccc(O)cc1)NC(=O)[C@H](CC(N)=O)NC(=O)[C@H](Cc1ccccc1)NC(=O)[C@H](CC(N)=O)NC(=O)[C@@H](N)CC(C)C)C(=O)N[C@H](C(=O)N[C@H](C(=O)N[C@@H](CC(=O)O)C(=O)O)C(C)C)[C@@H](C)CC", "note": "[LNFNYSLDYIIVD] (H-LNFNYSLDYIIVD-OH)", "Kd": "0.041 ± 0.01"},
      {"smiles": "CC[C@H](C)[C@H](NC(=O)[C@H](CCCCN)NC(=O)[C@H](Cc1c[nH]cn1)NC(=O)[C@H](CC(C)C)NC(=O)[C@H](CO)NC(=O)[C@H](Cc1ccc(O)cc1)NC(=O)[C@H](CC(N)=O)NC(=O)[C@H](Cc1ccccc1)NC(=O)[C@H](CC(N)=O)NC(=O)[C@@H](N)CC(C)C)C(=O)N[C@H](C(=O)N[C@H](C(=O)N[C@@H](CC(=O)O)C(=O)O)C(C)C)[C@@H](C)CC", "note": "[LNFNYSLHKIIVD] (H-LNFNYSLHKIIVD-OH)", "Kd": "0.087 ± 0.008"},
      {"smiles": "CC[C@H](C)[C@H](NC(=O)[C@H](CCCCN)NC(=O)[C@H](CC(C)C)NC(=O)[C@H](CC(C)C)NC(=O)[C@H](CO)NC(=O)[C@H](Cc1ccc(O)cc1)NC(=O)[C@H](CC(N)=O)NC(=O)[C@H](Cc1ccccc1)NC(=O)[C@H](CC(N)=O)NC(=O)[C@@H](N)CC(C)C)C(=O)N[C@H](C(=O)N[C@H](C(=O)N[C@@H](CC(=O)O)C(=O)O)C(C)C)[C@@H](C)CC", "note": "[LNFNYSLLKIIVD] (H-LNFNYSLLKIIVD-OH)", "Kd": "0.067 ± 0.008"},
      {"smiles": "CC[C@H](C)[C@H](NC(=O)[C@H](CCCCN)NC(=O)[C@H](CCSC)NC(=O)[C@H](CC(C)C)NC(=O)[C@H](CO)NC(=O)[C@H](Cc1ccc(O)cc1)NC(=O)[C@H](CC(N)=O)NC(=O)[C@H](Cc1ccccc1)NC(=O)[C@H](CC(N)=O)NC(=O)[C@@H](N)CC(C)C)C(=O)N[C@H](C(=O)N[C@H](C(=O)N[C@@H](CC(=O)O)C(=O)O)C(C)C)[C@@H](C)CC", "note": "[LNFNYSLMKIIVD] (H-LNFNYSLMKIIVD-OH)", "Kd": "0.046 ± 0.002"},
      {"smiles": "CC[C@H](C)[C@H](NC(=O)[C@H](CCCCN)NC(=O)[C@H](CC(N)=O)NC(=O)[C@H](CC(C)C)NC(=O)[C@H](CO)NC(=O)[C@H](Cc1ccc(O)cc1)NC(=O)[C@H](CC(N)=O)NC(=O)[C@H](Cc1ccccc1)NC(=O)[C@H](CC(N)=O)NC(=O)[C@@H](N)CC(C)C)C(=O)N[C@H](C(=O)N[C@H](C(=O)N[C@@H](CC(=O)O)C(=O)O)C(C)C)[C@@H](C)CC", "note": "[LNFNYSLNKIIVD] (H-LNFNYSLNKIIVD-OH)", "Kd": "0.093 ± 0.019"},
      {"smiles": "CC[C@H](C)[C@H](NC(=O)[C@H](CCCCN)NC(=O)[C@@H]1CCCN1C(=O)[C@H](CC(C)C)NC(=O)[C@H](CO)NC(=O)[C@H](Cc1ccc(O)cc1)NC(=O)[C@H](CC(N)=O)NC(=O)[C@H](Cc1ccccc1)NC(=O)[C@H](CC(N)=O)NC(=O)[C@@H](N)CC(C)C)C(=O)N[C@H](C(=O)N[C@H](C(=O)N[C@@H](CC(=O)O)C(=O)O)C(C)C)[C@@H](C)CC", "note": "[LNFNYSLPKIIVD] (H-LNFNYSLPKIIVD-OH)", "Kd": "0.031 ± 0.002"},
      {"smiles": "CC[C@H](C)[C@H](NC(=O)[C@H](CCCCN)NC(=O)[C@H](CCCNC(=N)N)NC(=O)[C@H](CC(C)C)NC(=O)[C@H](CO)NC(=O)[C@H](Cc1ccc(O)cc1)NC(=O)[C@H](CC(N)=O)NC(=O)[C@H](Cc1ccccc1)NC(=O)[C@H](CC(N)=O)NC(=O)[C@@H](N)CC(C)C)C(=O)N[C@H](C(=O)N[C@H](C(=O)N[C@@H](CC(=O)O)C(=O)O)C(C)C)[C@@H](C)CC", "note": "[LNFNYSLRKIIVD] (H-LNFNYSLRKIIVD-OH)", "Kd": "0.13 ± 0.019"},
      {"smiles": "CC[C@H](C)[C@H](NC(=O)[C@H](CCCCN)NC(=O)[C@H](CO)NC(=O)[C@H](CC(C)C)NC(=O)[C@H](CO)NC(=O)[C@H](Cc1ccc(O)cc1)NC(=O)[C@H](CC(N)=O)NC(=O)[C@H](Cc1ccccc1)NC(=O)[C@H](CC(N)=O)NC(=O)[C@@H](N)CC(C)C)C(=O)N[C@H](C(=O)N[C@H](C(=O)N[C@@H](CC(=O)O)C(=O)O)C(C)C)[C@@H](C)CC", "note": "[LNFNYSLSKIIVD] (H-LNFNYSLSKIIVD-OH)", "Kd": "0.031 ± 0.003"},
      {"smiles": "CC[C@H](C)[C@H](NC(=O)[C@H](CCCCN)NC(=O)[C@H](CC(=O)O)NC(=O)[C@H](CC(C)C)NC(=O)[C@H](Cc1ccc(O)cc1)NC(=O)[C@H](Cc1ccc(O)cc1)NC(=O)[C@H](CC(N)=O)NC(=O)[C@H](Cc1ccccc1)NC(=O)[C@H](CC(N)=O)NC(=O)[C@@H](N)CC(C)C)C(=O)N[C@H](C(=O)N[C@H](C(=O)N[C@@H](CC(=O)O)C(=O)O)C(C)C)[C@@H](C)CC", "note": "[LNFNYYLDKIIVD] (H-LNFNYYLDKIIVD-OH)", "Kd": 3.4},
      {"smiles": "CC[C@H](C)[C@H](NC(=O)[C@H](CCCCN)NC(=O)[C@H](CC(=O)O)NC(=O)[C@H](CC(C)C)NC(=O)[C@H](CO)NC(=O)[C@H](Cc1ccc(O)cc1)NC(=O)[C@H](CC(N)=O)NC(=O)[C@H](CC(C)C)NC(=O)[C@H](CC(N)=O)NC(=O)[C@@H](N)CC(C)C)C(=O)N[C@H](C(=O)N[C@H](C(=O)N[C@@H](CC(=O)O)C(=O)O)C(C)C)[C@@H](C)CC", "note": "[LNLNYSLDKIIVD] (H-LNLNYSLDKIIVD-OH)", "Kd": "0.45 ± 0.08"}
    ]}
  ]
}
